According to article PMC5493479 (Methods (San Diego, Calif.), 2016):

Biological target: T1, HisRS (Histidyl-tRNA synthetase) (Escherichia coli, UniProt P60906)
T1 sequence (P60906 2-424): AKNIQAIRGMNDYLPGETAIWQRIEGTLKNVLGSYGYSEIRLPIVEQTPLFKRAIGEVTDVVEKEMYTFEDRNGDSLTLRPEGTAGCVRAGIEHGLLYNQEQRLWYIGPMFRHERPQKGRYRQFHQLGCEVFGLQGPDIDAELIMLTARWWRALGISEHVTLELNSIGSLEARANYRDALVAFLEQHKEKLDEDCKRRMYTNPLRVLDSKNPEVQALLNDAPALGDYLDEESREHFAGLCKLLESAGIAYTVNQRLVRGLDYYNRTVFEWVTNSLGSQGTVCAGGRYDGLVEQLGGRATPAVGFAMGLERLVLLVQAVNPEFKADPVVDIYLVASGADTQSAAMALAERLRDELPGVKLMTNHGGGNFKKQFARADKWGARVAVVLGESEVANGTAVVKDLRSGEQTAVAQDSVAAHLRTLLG
Test: differential scanning fluorimetry
Type: binding
Details: 10 mM ATP; apo Tm 53.4 ± 1.1 °C; 10 uM enzyme, 20 mM HEPES pH 7.5, 150 mM KCl

ATP 10 mM Tm (°C): 55.8 ± 0.5 °C
Compound: Nc1ncnc2c1ncn2[C@@H]1O[C@H](COP(=O)(O)OP(=O)(O)OP(=O)(O)O)[C@@H](O)[C@H]1O [ATP]
